{
  "source": "paper PMC10567728",
  "about": "“Targeted imaging of uPAR expression in vivo with cyclic AE105 variants” (Scientific Reports, 2023)",
  "key": {"uPAR•uPA interaction": {"molecular_target": "T1, uPAR•uPA interaction (Homo sapiens, UniProt Q03405)", "T1 construct": "Recombinant human uPAR^1–283 was expressed; made in house; host or cells: Drosophila melanogaster S2 cells", "T1 sequence (Q03405 23-305)": "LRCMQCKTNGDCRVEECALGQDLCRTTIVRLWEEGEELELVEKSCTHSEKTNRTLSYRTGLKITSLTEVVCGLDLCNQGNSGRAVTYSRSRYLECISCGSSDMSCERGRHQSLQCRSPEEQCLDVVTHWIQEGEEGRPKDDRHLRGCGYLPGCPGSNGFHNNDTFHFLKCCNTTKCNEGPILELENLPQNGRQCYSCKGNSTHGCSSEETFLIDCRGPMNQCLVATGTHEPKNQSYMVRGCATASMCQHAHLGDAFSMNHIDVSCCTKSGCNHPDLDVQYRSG", "assay": "SPR competition assay of the uPAR•uPA interaction", "format": "binding", "details": "competition of uPAR•uPA interaction, 2 nM uPAR, 20 °C, n = 3", "experimental": "The IC50-values of antagonistic peptides on the uPAR•uPA interaction were determined with SPR using a Biacore T200™ or Biacore 3000™ instruments (Cytiva) essentially as described[4],[56],[77]. In brief, we immobilized high levels of pro-uPA^S356A (0.1 pmol pro-uPA/mm^2) on a CM5 sensor chip via amine coupling. The experiments were conducted by injecting 2 nM uPAR in presence of a threefold dilution series of a given antagonistic peptide for 300 s with a flow rate of 50 µL/min at 20 °C. The high immobilization levels result in binding conditions that are entirely controlled by mass transport limitations (MTL). Accordingly, the observed association rates (vobs) are directly proportional to the concentrations of binding-active uPAR in solution. To determine the IC50, we also measured a standard curve of uPAR binding (a twofold dilution series of 0.06 to 2 nM uPAR, linear due to MTL). The running buffer was 10 mM HEPES, 150 mM NaCl, 3 mM EDTA, and 0.05% (v/v) surfactant P-20 at pH 7.4, and the regeneration buffer was 0.1 M acetic acid in 0.5 M NaCl."}, "[1]": {"tested_on": "uPAR expression in U87MG tumor-bearing mice", "format": "in vivo", "details": "[64Cu]Cu-DOTA peptides", "experimental": "Five weeks old female NMRI nude mice were purchased from Janvier (Le Genest-Saint-Isle, France) and housed in groups to acclimatize for a week upon arrival with light/dark period of 12/12 h and under controlled environmental conditions (temperature: 20–22 °C, relative humidity: 55%). Access to fresh water and standard pellet diet was provided ad libitum. Human glioblastoma cancer cell line U87MG (ATCC, Manassas, USA) was cultured in Dulbecco’s modified eagle medium (DMEM) supplemented with 10% fetal bovine serum and 1% penicillin–streptomycin at 37 °C and 5% CO2. Cells were harvested by trypsinization at a confluence of 70–90%. Mice were anesthetized (3–4% sevoflurane in 65% N2 and 35% O2) and ~ 4 × 10^6 U87MG cells resuspended in 100 μL PBS were injected subcutaneously into the right flank. Tumors were allowed to grow for 20 days. Tumor sizes were monitored using caliper measurements (Volume = 0.5 x (Length x Width^2)).\nTumor-bearing mice (tumor volumes (mean ± SD) of 221 ± 105 mm^3) were grouped (n = 6 per group) and anesthetized (3–4% sevoflurane in 65% N2 and 35% O2) prior to imaging. The four different [^64Cu]Cu–DOTA conjugated peptides were administered via tail vein injections of 5.4 ± 0.4 MBq corresponding to 118 ± 7 pmol (1b), 111 ± 4 pmol (8b), 92 ± 3 pmol (9b), and 75 ± 4 pmol (11b) (mean ± SD). Whole-body imaging consisting of a CT acquisition followed by a static PET acquisition was performed on an Inveon® small animal imaging system (Siemens Medical Systems, Malvern, PA, USA). PET/CT imaging was performed 1 h, 22 h, and 46 h post-injection (p.i.) of tracer with a 5 min, 10 min and 15 min PET scan, respectively. During scans the animals were placed on a heated bedding system to keep the body temperature stable. The PET acquisition was performed with an energy window of 350–650 keV and a time resolution of 6 ns, and data was corrected for dead time and decay. The CT scan consisted of 360 projections, with a tube voltage of 65 kV, a tube current of 500 μA and an exposure time of 400 ms per projection. Sinograms from PET scans were reconstructed using a 3-dimensional maximum a posteriori algorithm with correction for scatter and attenuation (CT-based). PET and CT images were co-registered and analyzed using Inveon Research Workplace software (Siemens Medical Solutions). The mean percentage of injected dose per grams (%ID/g) in different tissues was extracted by manually creating regions of interest (ROI) on fused PET/CT images."}, "uPAR [2]": {"molecular_target": "T2, uPAR (Homo sapiens, UniProt Q03405)", "T2 construct": "Recombinant human uPAR^1–283 was expressed; made in house; host or cells: Drosophila melanogaster S2 cells", "T2 sequence (Q03405 23-305)": "as above", "assay": "SPR real-time binding kinetics, peptides in solution and immobilised uPAR", "experimental": "The real-time binding kinetics of uPAR•peptide interactions were measured with SPR using a Biacore T200™(Cytiva); essentially as described in[56],[77]. In brief, uPAR was covalently immobilised on a CM5 sensor chip via amine coupling resulting in a surface density of 1157–1581 RU (~ 33–44 fmol/mm^2). The binding kinetics for the peptides to immobilised uPAR were measured using a single cycle protocol. In this setup, peptides were injected as five serial two-fold dilutions with a contact time of 200 s. After the last analyte injection, the dissociation time was set to 1000 s. The sensor chip was regenerated with two consecutive injections of 0.1 M acetic acid in 0.5 M NaCl. All experiments were conducted at 20 °C with a flow rate of 50 µL/min in 10 mM HEPES, 150 mM NaCl, 3 mM EDTA, and 0.05% (v/v) surfactant P-20 at pH 7.4. The kinetic rate constants (kon and koff) were determined by non-linear regression fitting of the curves to the simple bimolecular interaction model (BiacoreT200 Evaluation™ 3.0 software)."}, "uPAR [3]": {"molecular_target": "T2, uPAR", "assay": "Nano-DSF thermal stability of uPAR•peptide complexes", "experimental": "The thermal stability of the uPAR•peptide complexes was analyzed with Nano-DSF using a Prometheus NT.48™ (Nanotemper). uPAR (15 µM) was mixed with twofold excess of peptide (30 µM) in PBS pH 7.4 and incubated for 15 min at RT to ensure complex formation. Samples containing either 15 µM uPAR or 30 µM of each peptide were included as controls. The samples were loaded into standard capillaries and in triplicates. To unfold the proteins, the samples were exposed to an increasing temperature gradient from 20 to 95 °C with a ramping rate of 1 °C/min. The excitation power was set to 50% (Ex.280 nm) and the fluorescence emission collected at 330 nm and 350 nm. The melting temperatures of the complexes were determined in the PR.ThermControl software (Nanotemper) from the first derivative of the fluorescence ratio (350 nm/330 nm)."}, "U87MG tumor-bearing mice": {"tested_on": "U87MG tumor-bearing mice", "assay": "Ex vivo biodistribution by gamma-counting of resected organs", "format": "in vivo", "details": "[64Cu]Cu-DOTA peptides, ex vivo at 46 h; also tumor to muscle or heart ratios", "experimental": "After the last PET/CT scan at 46 h p.i., mice were euthanized by cervical dislocation under anesthesia, and tumor, blood, heart, lung, liver, spleen, kidney, and muscle tissue were resected. All tissues were weighted, and the radioactivity measured in a gamma counter (Wizard2, Perkin Elmer). Data was corrected for decay, tissue weight and injected amount of radioactivity."}, "[4]": {"details": "[63Cu]-DOTA labelled peptides, single-cycle SPR"}},
  "note": "Like-named read-outs stand apart in the source and are kept apart here. Positions of bridges follow the written chain, without caps; N, C: chain ends. Non-standard residues stand in square brackets, D forms with d. Residues, ends and D or L forms follow the SMILES beside them. *: point of attachment. DOTA = O=C(O)CN1CCN(CC(=O)O)CCN(CC(=O)*)CCN(CC(=O)O)CC1; Cha = N[C@@H](CC1CCCCC1)C(=O)O",
  "data": [
    {"smiles": "CC(C)C[C@@H]1NC(=O)[C@H](Cc2ccc(O)cc2)NC(=O)[C@H](NC(=O)[C@@H](CO)NC(=O)[C@H](Cc2ccccc2)NC(=O)[C@H](CC2CCCCC2)NC(=O)[C@H](CC(=O)O)NC(=O)CN2CCN(CC(=O)O)CCN(CC(=O)O)CCN(CC(=O)O)CC2)CSSC[C@@H](C(N)=O)NC(=O)[C@H](Cc2c[nH]c3ccccc23)NC1=O", "note": "[9b] ({DOTA}-D[Cha]F[dS][dC]YLWC-NH2; disulfide 5-9)", "values": [
      {"measurement": "IC50", "setting": "uPAR•uPA interaction", "value": "7.3 ± 0.2", "unit": "nM"},
      {"measurement": "tumor uptake and tumor-to-organ ratios compared to linear control (8b)", "setting": "[1]", "value": "significant albeit weak improvement"},
      {"measurement": "difference in tumor max compared to (8b)", "setting": "[1]; PET at 22 h", "value": "statistically significant"},
      {"measurement": "tracer uptake compared to (8b)", "setting": "[1]; all PET scans (1 h, 22 h, 46 h)", "value": "small but consistently higher uptake"},
      {"measurement": "Kd", "setting": "uPAR [2]; [4]", "value": 22, "unit": "nM"},
      {"measurement": "koff", "setting": "uPAR [2]; [4]", "value": "0.00659 ± 2e-05", "unit": "s⁻¹"},
      {"measurement": "kon", "setting": "uPAR [2]; [4]", "value": "2.99 ± 0.04 105 M-1 s-1"},
      {"measurement": "koff", "setting": "uPAR [2]; single cycle SPR, immobilised uPAR, 20 °C", "value": "0.002744 ± 4e-06", "unit": "s⁻¹"},
      {"measurement": "Kd", "setting": "uPAR [2]; single cycle SPR, immobilised uPAR, 20 °C, 1:1 model", "value": 4.26, "unit": "nM"},
      {"measurement": "kon", "setting": "uPAR [2]; single cycle SPR, immobilised uPAR, 20 °C, read-out: kon", "value": "644000 ± 2000", "unit": "M⁻¹ s⁻¹"},
      {"measurement": "Tm (apparent melting temperature of uPAR•peptide complex)", "setting": "uPAR [3]; 15 µM uPAR, 30 µM peptide, PBS pH 7.4, n = 3", "value": "≥ 70", "unit": "°C"},
      {"measurement": "increase in apparent Tm", "setting": "uPAR [3]; DOTA-conjugated peptides, compared to (1b)", "value": "approximately 11 °C"},
      {"measurement": "difference in activity of resected tumors compared to (8b)", "setting": "U87MG tumor-bearing mice", "value": "statistically significant"}
    ]}
  ]
}
